Measurements published in patent publication US20240270725A1, “MAGL INHIBITORS” (Hoffmann-La Roche Inc., priority 2021, published 2024).

Tests used:
MAGL [1] = target: T1, MAGL (Mus musculus, UniProt O35678); experiment: 2-AG assay, MAGL inhibitory activity (mouse); assay type: biochemical
T1 sequence (O35678 1-303): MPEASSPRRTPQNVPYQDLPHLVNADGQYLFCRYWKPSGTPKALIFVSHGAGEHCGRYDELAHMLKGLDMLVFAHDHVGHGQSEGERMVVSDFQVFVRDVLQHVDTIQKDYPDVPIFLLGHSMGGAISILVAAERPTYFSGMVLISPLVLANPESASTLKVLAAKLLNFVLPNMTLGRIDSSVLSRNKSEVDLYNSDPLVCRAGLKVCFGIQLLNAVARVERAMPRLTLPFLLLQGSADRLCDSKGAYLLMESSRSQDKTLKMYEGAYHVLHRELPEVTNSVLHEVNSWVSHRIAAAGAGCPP
Description: (§1) Compounds were profiled for MAGL inhibitory activity by determining the enzymatic activity by following the hydrolysis of the natural substrate, 2-arachidonoylglycerol, resulting in arachidonic acid, which can be followed by mass spectrometry. This assay is hereinafter abbreviated “2-AG assay”.
(§2) A C18 SPE cartridge (G9205A) was used in an acetonitrile/water liquid setup. […] The activity of the compounds was calculated based on the ratio of intensities [arachidonic acid/d8-arachidonic acid].

MAGL [2] = target: T2, MAGL (Homo sapiens, UniProt Q99685); experiment: 2-AG assay, MAGL inhibitory activity (human); assay type: biochemical
T2 sequence (Q99685 1-303): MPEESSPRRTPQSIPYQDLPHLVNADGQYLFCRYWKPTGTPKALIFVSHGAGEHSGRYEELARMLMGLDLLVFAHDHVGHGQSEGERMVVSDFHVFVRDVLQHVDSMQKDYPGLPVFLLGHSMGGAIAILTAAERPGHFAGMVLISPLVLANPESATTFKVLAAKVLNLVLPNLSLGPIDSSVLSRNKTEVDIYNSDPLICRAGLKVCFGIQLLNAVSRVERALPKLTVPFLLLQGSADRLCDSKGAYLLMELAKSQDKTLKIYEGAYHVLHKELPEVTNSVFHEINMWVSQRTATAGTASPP
Description: as §1, §2

MAGL [3] = target: T1, MAGL; experiment: Drug occupancy study by PET with [^18F]-II; assay type: in vivo
Description: To investigate the utility of [^18F]-II, a drug occupancy study was conducted after validating the in vitro/vivo specificity. The potent and selective covalent MAGL inhibitor PF-06795071, originally developed for anti-inflammatory treatments, was applied for this study (McAllister LA, Butler C R, Mente S, et al. Discovery of Trifluoromethyl Glycol Carbamates as Potent and Selective Covalent Monoacylglycerol Lipase (MAGL) Inhibitors for Treatment of Neuroinflammation. J Med Chem. 2018;61:3008-3026). PF-06795071 was prepared as a transparent solution in a vehicle of DMSO/Cremophor/saline (v/v/v=5/5/90). The animal was treated with escalating doses of PF-06795071 (0.002, 0.01, 0.05, 0.2 and 2 mg/kg) 1 hour prior to the administration of [^18F]-II (4.15-11.13 MBq, 6.84-13.19 nmol/kg). The in vivo PET scans and data reconstruction were carried out as described in Example 9. The SUVs from the whole brain TACs was averaged from 0-90 min to obtain SUV0-90 min in receptor occupancy study as previously detailed by Krämer et al. (Krämer SD, Betzel T, Mu L, et al. Evaluation of ^11C-Me-NB1 as a Potential PET Radioligand for Measuring GluN2B-Containing NMDA Receptors, Drug Occupancy, and Receptor Cross Talk. J Nucl Med. 2018;59:698-703). The non-linear curve was fitted with GraphPad Prism Software (version 8.3.4, GraphPad Software Inc) for D50 value.

MAGL [4] = target: T3, MAGL (Rattus norvegicus, UniProt Q8R431); experiment: In vitro autoradiography blockade on rat brain section; assay type: binding; conditions: 10 μM blocker
T3 construct: from tissue; host or cells: Wistar rat brain sections
T3 sequence (Q8R431 1-303): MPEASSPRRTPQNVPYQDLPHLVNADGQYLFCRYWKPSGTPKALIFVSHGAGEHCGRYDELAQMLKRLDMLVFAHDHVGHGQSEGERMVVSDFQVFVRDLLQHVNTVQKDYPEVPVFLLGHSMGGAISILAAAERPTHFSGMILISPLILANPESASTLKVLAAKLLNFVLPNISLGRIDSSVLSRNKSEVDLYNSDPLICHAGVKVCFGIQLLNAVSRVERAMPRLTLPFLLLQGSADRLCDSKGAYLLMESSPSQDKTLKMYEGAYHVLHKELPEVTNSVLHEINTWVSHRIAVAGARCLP

MAGL [5] = test system: MAGL
Description: Frozen brain tissues of Wistar rats or mouse were cut in the thickness of 10 μm on a cryostat (Cryo-Star HM 560 MV; Microm, Thermo Scientific, Wilmington, DE), and stored at −20° C. before use. Before the experiments, the slices were thawed on ice for 10 min and subsequently immersed into aqueous 50 mM Tris buffer (pH 7.4, 30 mM HEPES, 1.2 mM MgCl2, 110 mM NaCl, 5 mM KCl, 2.5 mM CaCl2) containing 3% fatty acid free bovine serum albumin (BSA) at 0° C. for 10 min for precondition. Upon drying, incubation was carried out in a humidified chamber with the radiotracer at room temperature for 30 min. […] The slices were decanted after incubation, and washing procedure was conducted. The slices were left to dry before attaching to phosphor imager plates (Fuji, Dielsdorf, Switzerland), and exposure was lasted for 60 min. The films were later scanned by BAS5000 reader (Fuji), and data analysis was performed using AIDA 4.50.010 software (Raytest Isotopenmessgerate GmbH, Straubenhardt, Germany).

MAGL [6] = experiment: In vivo PET scans in MAGL KO and WT mice; conditions: mouse brain, at 1 min p.i., intravenous
Description: The animal was anesthetized using isoflurane and placed in the PET/CT scanner (Super Argus, Sedecal, Madrid, Spain). The radiotracer was injected intravenously, and data was acquired at 1 min post-injection. The dynamic PET scan lasted 60 min for [^11C]-I, while it's prolonged to 90 min for [^18F]-II and [^18F]-III. […] The regions of interest (ROI) were defined on an MRI T2 (W.Schiffer) template provided by PMOD v4.002 (PMOD Technologies, Zurich, Switzerland) to generate the corresponding time acitivity curves (TACs). The radioactivity accumulations in the whole brain and different regions were expressed as standardized uptake values (SUVs), which is the decay-corrected regional radioactivity normalized to the injected radioactivity and body weight.

MAGL [7] = conditions: reported in Hattori et al., J Med Chem 2019; cited from earlier work

COc1cccc(-c2ccc(N3C[C@H](N4CCN(C(=O)c5ccco5)CC4)CC3=O)cc2)c1 [I, (R)-4-(4-(Furan-2-carbonyl)piperazin-1-yl)-1-(3′-methoxy-[1,1′-biphenyl]-4-yl)pyrrolidin-2-one]
IC50 (MAGL [1]): 4.3 nM
IC50 (MAGL [2]): 6.5 nM

O=C(c1ccco1)N1CCN([C@@H]2CC(=O)N(c3ccc(-c4cccc(F)c4)cc3)C2)CC1 [III, (R)-1-(3′-Fluoro-[1,1′-biphenyl]-4-yl)-4-(4-(furan-2-carbonyl)piperazin-1-yl)pyrrolidin-2-one]
IC50 (MAGL [1]): 11.3 nM
IC50 (MAGL [2]): 11.5 nM

O=C(O[C@H](CO)C(F)(F)F)N1C[C@@H]2C(c3ccn(-c4ccc(F)cc4)n3)[C@@H]2C1 (stereo partly shown) [PF-06795071]
effect on [^18F]-II accumulation in the mouse brain (MAGL [3]; 0.002 to 2 mg/kg): dose-dependent reduction
required dose to occupy 50% MAGL in the mouse brain (D50) (MAGL [3]; given 1 hour prior to [^18F]-II, SUV0-90 min whole brain): 0.034 mg/kg

O=C(OC(C(F)(F)F)C(F)(F)F)N1CCC(CNS(=O)(=O)c2ccc(Cl)cc2)CC1 [SAR127303]
blockade of specific binding of [^11C]-I (MAGL [4]): substantial reduction and homogenous distribution of the radioactivity

[11CH3]Oc1cccc(-c2ccc(N3C[C@H](N4CCN(C(=O)c5ccco5)CC4)CC3=O)cc2)c1 [[^11C]-I, (R)-4-(4-(furan-2-carbonyl)piperazin-1-yl)-1-(3′-(methoxy-^11C)-[1,1′-biphenyl]-4-yl)pyrrolidin-2-one]
specificity and selectivity in vitro (MAGL [5]; autoradiography, blockade and MAGL KO brain section): high specificity and selectivity
distribution of radioactive signal accumulation on brain slices (MAGL [5]; ~1 nM radiotracer, mouse or rat brain slice): heterogeneous distribution of radioactive signal accumulation, which matched to the MAGL expression pattern in rodents
SUVmax (brain uptake) (MAGL [6]): ~1.32

O=C(c1ccco1)N1CCN([C@@H]2CC(=O)N(c3ccc(-c4cccc([18F])c4)cc3)C2)CC1 [[^18F]-III]
SUVmax (brain uptake) (MAGL [6]): ~1.63

O=C(c1ccco1)N1CCN([C@@H]2CC(=O)N(c3ccc(-c4ccc([18F])cc4)cc3)C2)CC1 [[^18F]-II]
SUVmax (brain uptake) (MAGL [6]): ~1.56

Cc1ccnc([18F])c1-c1cccc(N2C[C@H](N3CCN(C(=O)c4nccs4)CC3)CC2=O)c1 [[^18F]T-401, (4R)-1-{3-[2-(^18F)Fluoro-4-methylpyridin-3-yl]phenyl}-4-[4-(1,3-thiazol-2-ylcarbonyl)piperazin-1-yl]pyrrolidin-2-one]
SUVmax (brain uptake), literature (MAGL [7]): ~0.7
